Values after ≈ are worked out from the molar mass of the structure shown.
Assays:
Haemophilus influenzae = test: Antibacterial activity against Haemophilus influenzae (HI1008); type: functional
Moraxella catarrhalis = test: Antibacterial activity against Moraxella catarrhalis (MC1002); type: functional

MIC (Haemophilus influenzae): ≤ 0.06 µg/mL | MIC (Moraxella catarrhalis): 0.03 µg/mL (≈ 0.0905 µM)
SMILES: O=C(O)c1cn(C2CC2)c2cc(N3CCNCC3)c(F)cc2c1=O [CIPROFLOXACIN]
